Activity calls are given as the source filed them. No cut-off for these calls is given here.

This passage reports Activity and IC50 results from ChEMBL document CHEMBL1221369, “Cytotoxic isomalabaricane derivatives and a monocyclic triterpene glycoside from the sponge Rhabdastrella globostellata” (J Nat Prod, 2010).

Test [1] has as its system HL-60 (human). The experiment in a line: Cytotoxicity against human HL-60 cells at 100 uM by MTT assay.
Test [2] relates to HL-60 (human). The experiment in a line: Cytotoxicity against human HL-60 cells by MTT assay.
In test [3] the test system is HL-60 (human). The experiment in a line: Effect on Bcl-2 expression in human HL-60 cells at 10 uM by immunoblot analysis.
The test system of test [4] is HL-60 (human). The experiment in a line: Induction of apoptosis in human HL-60 cells assessed as pro-caspase 3 cleavage at 10 uM by immunoblot analysis.
In test [5] the test system is HL-60 (human). As to the kind of experiment: Induction of apoptosis in human HL-60 cells at 10 uM after 72 hrs by FITC-conjugated annexin V staining-based FACS analysis.

As for `COC(=O)/C(C)=C1\C(=O)C[C@H]2[C@@]3(C)CC[C@H](OC(C)=O)C(C)(C)[C@@H]3CC[C@]12C`, the outcome with HL-60 (human) [1] was inactive.

In the test on HL-60 (human) [2], `C=C(C)[C@@H]1C[C@@H](O)[C@](C)(O)[C@H]1/C=C/C(C)=C1\C(=O)C[C@H]2[C@@]3(C)CC[C@H](OC(C)=O)C(C)(C)[C@@H]3CC[C@]12C` [RHABDASTIN E] showed an IC50 of 29 µM. In addition, the outcome in the test on HL-60 (human) [3] was inactive. Also, the outcome with HL-60 (human) [4] was Active. This compound returned an Activity with HL-60 (human) [5] of 17%.

In the case of `C=C(C)[C@@H]1C[C@H](O)[C@](C)(O)[C@H]1/C=C/C(C)=C1\C(=O)C[C@H]2[C@@]3(C)CC[C@H](OC(C)=O)C(C)(C)[C@@H]3CC[C@]12C` [RHABDASTIN D], it took 21 µM to reach half-maximal inhibition in the test on HL-60 (human) [2] (IC50). The outcome in the test on HL-60 (human) [3] was inactive. Besides, the result in the test on HL-60 (human) [4] was Active. The Activity in the test on HL-60 (human) [5] was 18%.

Turning to `C=C(C)[C@@H]1C[C@@H](OC(C)=O)[C@](C)(OC(C)=O)[C@H]1/C=C/C(C)=C1\C(=O)C[C@H]2[C@@]3(C)CC[C@H](OC(C)=O)C(C)(C)[C@@H]3CC[C@]12C` [RHABDASTIN D DIACETATE], the IC50 in the test on HL-60 (human) [2] was 11 µM. This counts as double-digit micromolar.

As to `COC(=O)/C(C)=C1\C(=O)C[C@H]2[C@@]3(C)CC[C@H](O)C(C)(C)[C@@H]3CC[C@]12C`, in the test on HL-60 (human) [1], the result was inactive.

In the test with HL-60 (human) [2], `CC(=O)O[C@H]1CC[C@@]2(C)[C@@H](CC[C@]3(C)/C(=C(C)/C=C/[C@H]4[C@H](C(C)(C)O)C[C@@H](O)[C@]4(C)O)C(=O)C[C@@H]23)C1(C)C` [RHABDASTIN G] registered an IC50 of 44 µM. This counts as double-digit micromolar.

On to `COC(=O)/C(C)=C1\C(=O)C[C@H]2[C@@]3(C)CC[C@H](OC(C)=O)[C@](C)(C(=O)OC)[C@@H]3CC[C@]12C`, for which the outcome in the test with HL-60 (human) [1] was inactive.
